# Tests used:
# intestinal α-glucosidase [1] = assay: Inhibition of intestinal α-glucosidase activity of normal mouse (intestinal homogenate, glucose production); assay type: biochemical; settings: for Glucose (glucose production from isomaltose): substrate isomaltose; for Glucose (glucose production from isomaltose) / Glucose (glucose production from maltose) / Glucose (glucose production from sucrose): 37° C., 30 minutes; for Glucose (glucose production from maltose): substrate maltose
# Procedure: (§1) Intestinal tract enucleated from a normal mouse was homogenized by the conventional method after removing membrane mucosa. As a substrate, sucrose, starch, maltose or isomaltose was used. The homogenate was incubated with the substrate in the presence of a test compound (Y-4 or zinc chloride) at 37° C. for 30 minutes. The reaction mixture was centrifuged and the glucose concentration in the resulting supernatant was assayed. The glucose assay was conducted calorimetrically by adding a chromogenic reagent (0.47 mol/l of orthotoluidine, 16 mol/l of acetic acid, 10 mmol/l of boric acid) to the supernatant, heating the mixture in a boiling water bath for 8 minutes and measuring the absorbance at 635 nm. α-Glucosidase activity expressed in terms of glucose concentration/mg protein was calculated.
# intestinal α-glucosidase [2] = assay: Inhibition of intestinal α-glucosidase activity of streptozocin-induced diabetic mouse; assay type: biochemical; settings: for Glucose (glucose production from maltose) / Glucose (glucose production from sucrose): diabetic mouse; for Glucose (glucose production from maltose): substrate maltose; for Glucose (glucose production from sucrose): substrate sucrose
# Procedure: as §1
# Example 5 was repeated using intestinal tract enucleated from a diabetic mouse induced by the treatment with streptozocin instead of intestinal tract enucleated from a normal mouse to determine the inhibitory effect of Y-4 on α-glycosidase activity. The intestinal α-glucosidase activity was higher in streptozocin-induced diabetic mouse than in normal mouse. […] The inhibitory effect of Y-4 was more remarkable in the diabetic mouse than in normal mouse.
structure (smiles),measurement,setting,value
"[Cl-].[Cl-].[Zn+2] [ZnCl2, zinc chloride]",Inhibition of the enzymatic reaction with other substrates,"intestinal α-glucosidase [1]; starch, maltose, isomaltose",not effective
same,Glucose (glucose production from isomaltose),intestinal α-glucosidase [1]; inhibitor 5 mM,6.207 ± 0.230 mg/mg protein
same,Glucose (glucose production from isomaltose),intestinal α-glucosidase [1]; inhibitor 10 mM,5.868 ± 0.496 mg/mg protein
same,Glucose (glucose production from isomaltose),intestinal α-glucosidase [1]; inhibitor 30 mM,6.510 ± 0.169 mg/mg protein
same,Glucose (glucose production from isomaltose),intestinal α-glucosidase [1]; inhibitor 50 mM,5.421 ± 0.339 mg/mg protein
same,Glucose (glucose production from maltose),intestinal α-glucosidase [1]; inhibitor 5 mM,19.917 ± 0.932 mg/mg protein
same,Glucose (glucose production from maltose),intestinal α-glucosidase [1]; inhibitor 10 mM,18.114 ± 0.145 mg/mg protein
same,Glucose (glucose production from maltose),intestinal α-glucosidase [1]; inhibitor 30 mM,15.657 ± 0.036 mg/mg protein
same,Glucose (glucose production from maltose),intestinal α-glucosidase [1]; inhibitor 50 mM,10.442 ± 0.290 mg/mg protein
same,Inhibition of the enzymatic reaction with sucrose,intestinal α-glucosidase [1]; substrate sucrose,as effective as Y-4
same,Glucose (glucose production from sucrose),"intestinal α-glucosidase [1]; substrate sucrose, inhibitor 5 mM",3.509 ± 0.254 mg/mg protein
same,Glucose (glucose production from sucrose),"intestinal α-glucosidase [1]; substrate sucrose, inhibitor 10 mM",1.658 ± 0.078 mg/mg protein
same,Glucose (glucose production from sucrose),"intestinal α-glucosidase [1]; substrate sucrose, inhibitor 30 mM",0.714 ± 0.097 mg/mg protein
same,Glucose (glucose production from sucrose),"intestinal α-glucosidase [1]; substrate sucrose, inhibitor 50 mM",0.133 ± 0.024 mg/mg protein
same,Glucose (glucose production from maltose),intestinal α-glucosidase [2]; inhibitor 5 mM,28.691 ± 1.222 mg/mg protein
same,Glucose (glucose production from maltose),intestinal α-glucosidase [2]; inhibitor 10 mM,20.698 ± 0.442 mg/mg protein
same,Glucose (glucose production from maltose),intestinal α-glucosidase [2]; inhibitor 30 mM,21.175 ± 0.105 mg/mg protein
same,Glucose (glucose production from maltose),intestinal α-glucosidase [2]; inhibitor 50 mM,21.838 ± 0.652 mg/mg protein
same,Glucose (glucose production from sucrose),intestinal α-glucosidase [2]; inhibitor 5 mM,13.346 ± 0.411 mg/mg protein
same,Glucose (glucose production from sucrose),intestinal α-glucosidase [2]; inhibitor 10 mM,6.716 ± 0.145 mg/mg protein
same,Glucose (glucose production from sucrose),intestinal α-glucosidase [2]; inhibitor 30 mM,5.772 ± 0.121 mg/mg protein
same,Glucose (glucose production from sucrose),intestinal α-glucosidase [2]; inhibitor 50 mM,4.973 ± 0.024 mg/mg protein
same,"Inhibition of intestinal α-glucosidase, all substrates",intestinal α-glucosidase [2]; streptozocin-induced diabetic mouse,only weak inhibitory effects

# From patent publication US6358999B2, “Use of zinc tranexamate in the treatment of diabetes” (Hamari Chemicals, LTD, priority 2000, dated 2002)
